Assay results as given in ChEMBL document CHEMBL1201862, “PubChem BioAssay data set” (2004).
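Cells were grown in 96-well plates and exposed to each compound for 48 hours at five concentrations; endpoints were interpolated linearly between bracketing concentrations, or set to the highest concentration if not reached. At the GI50, growth is halved.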 Activity calls are given as the source filed them. No stated cut-off is given here; in the data, active = GI50 up to about 1.1 µM and inactive = higher.

Legend:
Assay in all cases: DTP human tumour cell line panel, 48 h
A549 = test system: A549
ACHN = test system: ACHN
CAKI-1 = test system: CAKI-1
DMS-273 = test system: DMS-273
HCT-116 = test system: HCT-116
HCT-15 = test system: HCT-15
HOP-92 = test system: HOP-92
NCI-H23 = test system: NCI-H23
OVCAR-5 = test system: OVCAR-5
RPMI-8226 = test system: RPMI-8226
SF-539 = test system: SF-539
TK-10 = test system: TK-10
UACC-257 = test system: UACC-257
UACC-62 = test system: UACC-62
UO-31 = test system: UO-31

CC(=O)ON(C(C)=O)C1C(COC(c2ccccc2)(c2ccccc2)c2ccccc2)OC2OC3(CCCC3)OC21 (stereo not given)
GI50 (A549): 4.59 µM (inactive) | GI50 (ACHN): 7.66 µM (inactive) | GI50 (CAKI-1): > 100 µM (inactive) | GI50 (DMS-273): 3.57 µM (inactive) | GI50 (HCT-116): 5.45 µM (inactive) | GI50 (HCT-15): 4.6 µM | GI50 (HOP-92): 2.42 µM (inactive) | GI50 (NCI-H23): 4.24 µM (inactive) | GI50 (OVCAR-5): > 100 µM (inactive) | GI50 (RPMI-8226): 2.42 µM (inactive) | GI50 (SF-539): > 100 µM (inactive) | GI50 (TK-10): > 81.7 µM (inactive) | GI50 (UACC-257): 11.6 µM (inactive) | GI50 (UACC-62): > 42 µM (inactive) | GI50 (UO-31): 5.36 µM (inactive)

O=C1OC(CC(=O)c2ccc(Cl)cc2Cl)C(Cl)=C1Cl (stereo not given)
GI50 (A549): > 100 µM (inactive) | GI50 (ACHN): > 41.1 µM (inactive) | GI50 (CAKI-1): 30.8 µM (inactive) | GI50 (DMS-273): 39 µM (inactive) | GI50 (HCT-116): 18.2 µM (inactive) | GI50 (HCT-15): 29.3 µM | GI50 (HOP-92): 18.9 µM (inactive) | GI50 (NCI-H23): 28.9 µM (inactive) | GI50 (OVCAR-5): > 45.1 µM (inactive) | GI50 (RPMI-8226): 26.9 µM (inactive) | GI50 (SF-539): 22 µM (inactive) | GI50 (TK-10): > 55.5 µM (inactive) | GI50 (UACC-257): > 100 µM (inactive) | GI50 (UACC-62): 17 µM (inactive) | GI50 (UO-31): > 42.6 µM (inactive)

CN(c1ccccc1)C1C(=O)N(c2ccccc2)C1/C=C/c1ccccc1 (stereo not given)
GI50 (A549): > 100 µM (inactive) | GI50 (ACHN): > 100 µM (inactive) | GI50 (CAKI-1): > 100 µM (inactive) | GI50 (DMS-273): > 100 µM (inactive) | GI50 (HCT-116): > 100 µM (inactive) | GI50 (HOP-92): > 100 µM (inactive) | GI50 (NCI-H23): > 100 µM (inactive) | GI50 (OVCAR-5): > 100 µM (inactive) | GI50 (RPMI-8226): > 100 µM (inactive) | GI50 (SF-539): > 100 µM (inactive) | GI50 (TK-10): > 100 µM (inactive) | GI50 (UACC-257): > 100 µM (inactive) | GI50 (UACC-62): 72.6 µM (inactive) | GI50 (UO-31): > 100 µM (inactive)

CCOP(=O)(OCC)/C(C#N)=C/c1ccc[nH]1
GI50 (A549): > 100 µM (inactive) | GI50 (ACHN): > 100 µM (inactive) | GI50 (CAKI-1): > 100 µM (inactive) | GI50 (DMS-273): > 100 µM (inactive) | GI50 (HCT-116): > 100 µM (inactive) | GI50 (HCT-15): > 100 µM | GI50 (HOP-92): > 100 µM (inactive) | GI50 (NCI-H23): > 100 µM (inactive) | GI50 (OVCAR-5): > 100 µM (inactive) | GI50 (RPMI-8226): > 100 µM (inactive) | GI50 (SF-539): > 100 µM (inactive) | GI50 (TK-10): 74.6 µM (inactive) | GI50 (UACC-257): > 100 µM (inactive) | GI50 (UACC-62): > 100 µM (inactive) | GI50 (UO-31): > 100 µM (inactive)

COc1cc2ccnc3c(=C(SC)SC)c(=O)c(c1OC)c23
GI50 (A549): 42.3 µM (inactive) | GI50 (ACHN): 12.9 µM (inactive) | GI50 (CAKI-1): 10.3 µM (inactive) | GI50 (DMS-273): 13.8 µM (inactive) | GI50 (HCT-15): 11.9 µM | GI50 (HOP-92): 5.64 µM (inactive) | GI50 (NCI-H23): > 10 µM (inactive) | GI50 (OVCAR-5): 20.9 µM (inactive) | GI50 (RPMI-8226): 3.29 µM (inactive) | GI50 (SF-539): 17.4 µM (inactive) | GI50 (TK-10): 14 µM (inactive) | GI50 (UACC-257): 13.6 µM (inactive) | GI50 (UACC-62): 17.8 µM (inactive) | GI50 (UO-31): 14.6 µM (inactive)

Cc1ccc(SC2C(C)(C)N(C(C)C)P2(=O)N(C(C)C)C(C)C)cc1 (stereo not given)
GI50 (A549): > 45 µM (inactive) | GI50 (ACHN): 15.8 µM (inactive) | GI50 (CAKI-1): 47 µM (inactive) | GI50 (DMS-273): 13.4 µM (inactive) | GI50 (HCT-116): 26.4 µM (inactive) | GI50 (HCT-15): 62.8 µM | GI50 (HOP-92): 5.58 µM (inactive) | GI50 (NCI-H23): 26.7 µM (inactive) | GI50 (OVCAR-5): > 100 µM (inactive) | GI50 (RPMI-8226): 9.35 µM (inactive) | GI50 (SF-539): > 88.9 µM (inactive) | GI50 (TK-10): > 100 µM (inactive) | GI50 (UACC-257): 16.9 µM (inactive) | GI50 (UACC-62): 42.1 µM (inactive) | GI50 (UO-31): 46.1 µM (inactive)

N#Cc1ccc(Sc2ccccc2)cc1C#N
GI50 (A549): > 100 µM (inactive) | GI50 (ACHN): > 100 µM (inactive) | GI50 (CAKI-1): > 100 µM (inactive) | GI50 (DMS-273): 19.1 µM (inactive) | GI50 (HCT-116): 20.7 µM (inactive) | GI50 (HCT-15): 16 µM | GI50 (HOP-92): 30.1 µM (inactive) | GI50 (NCI-H23): 50.5 µM (inactive) | GI50 (OVCAR-5): > 100 µM (inactive) | GI50 (RPMI-8226): 28.1 µM (inactive) | GI50 (SF-539): 19.7 µM (inactive) | GI50 (TK-10): 80.5 µM (inactive) | GI50 (UACC-257): > 100 µM (inactive) | GI50 (UACC-62): > 100 µM (inactive) | GI50 (UO-31): > 100 µM (inactive)

COc1ccc2nc3cc(Cl)ccc3c(Sc3ccccc3[N+](=O)[O-])c2c1
GI50 (A549): > 100 µM (inactive) | GI50 (ACHN): > 100 µM (inactive) | GI50 (CAKI-1): > 100 µM (inactive) | GI50 (DMS-273): > 100 µM (inactive) | GI50 (HCT-116): > 100 µM (inactive) | GI50 (HCT-15): > 100 µM | GI50 (HOP-92): 90.2 µM (inactive) | GI50 (NCI-H23): > 100 µM (inactive) | GI50 (OVCAR-5): > 100 µM (inactive) | GI50 (SF-539): 58.1 µM (inactive) | GI50 (TK-10): 81.8 µM (inactive) | GI50 (UACC-257): > 100 µM (inactive) | GI50 (UACC-62): > 100 µM (inactive) | GI50 (UO-31): > 100 µM (inactive)

C=C1C(=O)O[C@H]2[C@H]1[C@H](OC(=O)/C(C)=C\C)CC(=C)[C@@H]1[C@H](O)[C@H]3O[C@@]3(C)[C@@]12O [EUPATUNDIN]
GI50 (A549): > 100 µM (inactive) | GI50 (ACHN): > 100 µM (inactive) | GI50 (CAKI-1): > 100 µM (inactive) | GI50 (DMS-273): > 100 µM (inactive) | GI50 (HCT-116): > 100 µM (inactive) | GI50 (HCT-15): > 100 µM | GI50 (HOP-92): > 100 µM (inactive) | GI50 (NCI-H23): > 100 µM (inactive) | GI50 (RPMI-8226): > 100 µM (inactive) | GI50 (SF-539): > 100 µM (inactive) | GI50 (TK-10): > 100 µM (inactive) | GI50 (UACC-62): > 100 µM (inactive) | GI50 (UO-31): > 100 µM (inactive)
